The values that follow come from ChEMBL document CHEMBL1201862, “PubChem BioAssay data set” (2004).

Holding throughout (assay): NCI anticancer screen, dose series, 48 h
Experiment [1] concerns A498.
Experiment [2] deals with A549.
Experiment [3] has as its system ACHN.
For experiment [4], the system named is CCRF-CEM.
In experiment [5] the test system is HCT-116.
In experiment [6] the test system is HOP-62.
Experiment [7] concerns HOP-92.
Experiment [8] deals with Hs-578T.
Experiment [9] deals with IGROV-1.
Experiment [10] has as its system KM12.
For experiment [11], the system named is NCI-H226.
Experiment [12] concerns NCI-H460.
Experiment [13] deals with OVCAR-3.
The test system of experiment [14] is OVCAR-8.
The subject of experiment [15] is RXF 393.
Experiment [16] deals with SF-268.
Experiment [17] relates to SK-MEL-28.
The test system of experiment [18] is SNB-19.
The test system of experiment [19] is TK-10.

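Assay format: 96-well plates, 48-hour exposure. Here, GI50 denotes the concentration required for 50% inhibition of growth.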 Activity calls are given as the source filed them. Cut-off read from the data, not from the text of the source: active = GI50 up to about 1.1 µM and inactive = higher. Bounds are passed on as bounds.

In the case of `N=C(N)N/N=C/c1c(-c2ccc([N+](=O)[O-])cc2)nc2sccn12`, the GI50 in experiment [1] is 1.73 µM (inactive); in [2] it was 1.78 µM (inactive); in experiment [3], 2.64 µM (inactive); in experiment [4], 0.673 µM (active); in [5], 1.63 µM (inactive); in experiment [6], 1.67 µM (inactive). The GI50 is 1.9 µM (inactive) in experiment [7]; 1.89 µM (inactive) in [8]; 8.63 µM (inactive) in experiment [9]; 0.759 µM (active) in experiment [10]; 1.75 µM (inactive) in experiment [11]; 2 µM (inactive) in experiment [12]. Also, the GI50 in [13] was 1.37 µM (inactive); in [14], 2.12 µM (inactive); in experiment [15], 2.55 µM (inactive); in experiment [16], 1.85 µM (inactive); in [17], 1.94 µM (inactive); in [18], 1.38 µM (inactive). For the same molecule, the GI50 in [19] was 1.82 µM (inactive).

`CCO/C=C/C(C)C1(C(=O)OCC)CCCCC1=O` (centres undefined): the GI50 in experiment [1], in experiment [2], in experiment [3], in [4], in experiment [5] and in experiment [6] was > 100 µM (inactive) in each case. The GI50 in experiment [7], in experiment [9], in [10], in experiment [11], in experiment [12] and in experiment [13] was > 100 µM (inactive) throughout. The GI50 in experiment [14], in experiment [15], in experiment [16], in experiment [17], in experiment [18] and in experiment [19] was > 100 µM (inactive) throughout.

In the case of `CCOC(=O)C1=C(Nc2ccc(Br)cc2)OCC1=O`, the GI50 in [1], in experiment [2], in [3], in [4], in experiment [5] and in [6] was > 100 µM (inactive) each time. The GI50 in experiment [7], in experiment [9], in experiment [10], in [11], in experiment [12] and in experiment [13] was > 100 µM (inactive) each time. Besides, the GI50 in [14], in experiment [15], in experiment [16], in [17], in experiment [18] and in experiment [19] was > 100 µM (inactive) each time.

For the molecule `O=C1CCCC/C(=C/c2ccccc2)N1`, the GI50 in [1], in experiment [2], in [3], in experiment [4], in experiment [5] and in [6] was > 100 µM (inactive) throughout. In addition, the GI50 in [7], in [9], in experiment [10], in experiment [11], in experiment [12] and in experiment [13] was > 100 µM (inactive) throughout. For the same molecule, the GI50 in experiment [14], in [15], in experiment [16], in [17] and in experiment [19] was > 100 µM (inactive) each time.

For `NC1=NN(c2ccccc2)C(=O)C1C(=O)C(=O)Nc1nccs1` (centres undefined), the GI50 in [1], in experiment [2], in experiment [3], in experiment [4], in experiment [5] and in experiment [6] was > 100 µM (inactive) in each case. Moreover, the GI50 in experiment [7], in experiment [9], in experiment [10], in experiment [11], in experiment [12] and in [13] was > 100 µM (inactive) each time. The GI50 in experiment [14], in [15], in experiment [16], in experiment [17], in experiment [18] and in [19] was > 100 µM (inactive) each time.

Consider `O=C1c2ccccc2-c2nc(-c3cccnc3)cc3c2c1nc1ccccc13`, for which the GI50 in experiment [2] is > 100 µM (inactive); in experiment [3], > 100 µM (inactive); in experiment [4], 26.5 µM (inactive); in experiment [5], > 100 µM (inactive); in experiment [6], > 100 µM (inactive); in experiment [7], > 100 µM (inactive). The GI50 was > 100 µM (inactive) in experiment [8]; 25.5 µM (inactive) in [9]; > 10 µM (inactive) in experiment [10]; > 100 µM (inactive) in experiment [11]; 22.8 µM (inactive) in [12]; 11.6 µM (inactive) in experiment [13]. Also, the GI50 in experiment [14], in experiment [16], in [17], in experiment [18] and in experiment [19] was > 100 µM (inactive) in each case.

In the case of `CC[C@H](CCCC[C@H]1CC[C@@H]2CC(=O)C[C@H]12)OC`, the GI50 in [2] was 93.8 µM (inactive); in experiment [3] it was > 100 µM (inactive); in [4], 60.7 µM (inactive); in experiment [5] it was 52.2 µM (inactive); in experiment [6], > 100 µM (inactive); in experiment [7] it was 27.4 µM (inactive). For the same molecule, the GI50 in [8] was > 100 µM (inactive); in [9], > 100 µM (inactive); in experiment [10], > 100 µM (inactive); in experiment [11] it was > 100 µM (inactive); in experiment [12], > 100 µM (inactive); in [13] it was 85.3 µM (inactive). Further, the GI50 in [14], in [18] and in [19] was > 100 µM (inactive) in each case.

`CCOc1nc(N)nc(C)c1/N=N/c1ccc(Cl)cc1`: the GI50 was > 100 µM (inactive) in experiment [2]; > 100 µM (inactive) in experiment [3]; 41.3 µM (inactive) in experiment [4]; > 100 µM (inactive) in experiment [5]; > 100 µM (inactive) in experiment [6]; 13.7 µM (inactive) in experiment [7]. The GI50 in experiment [8] was 0.124 µM (active); in [9] it was > 100 µM (inactive); in experiment [10], > 100 µM (inactive); in experiment [11] it was 20.6 µM (inactive); in [12] it was > 100 µM (inactive); in experiment [13], > 100 µM (inactive). In addition, the GI50 in [14], in experiment [15], in experiment [16], in [17], in [18] and in experiment [19] was > 100 µM (inactive) throughout.

As to `CC1(C)N=C(N)N=C(N)N1c1ccc(OCC(=O)Nc2cccc(S(=O)(=O)F)c2)c(Cl)c1`, the GI50 in experiment [2] is 3.52 µM (inactive); in experiment [3], 30 µM (inactive); in [4], 5.37 µM (inactive); in [5], 12.6 µM (inactive); in experiment [6] it was 31 µM (inactive); in [7] it was 2.25 µM (inactive). Moreover, the GI50 in [8] is 12.2 µM (inactive); in experiment [9], 7 µM (inactive); in [10], 17.7 µM (inactive); in [11], 1.8 µM (inactive); in [12], 5.48 µM (inactive); in experiment [13] it was 18.5 µM (inactive). Besides, the GI50 was 5.82 µM (inactive) in experiment [14]; 4.78 µM (inactive) in experiment [16]; > 70 µM (inactive) in experiment [17]; 7.8 µM (inactive) in [18]; 7.24 µM (inactive) in experiment [19].

`COC(C)(C)[C@H](O)C(O)CC(C)[C@@H]1CCC23CC12CCC1[C@@]2(C)CCC(OC(C)=O)C(C)(C)C2CC(OC2OC(COC(C)=O)C(O)C(O)C2O)[C@]13C` (some centres undefined): the GI50 in [1] was 8.83 µM (inactive); in [2] it was 2.94 µM (inactive); in [3], 3.76 µM (inactive); in experiment [4], 2.55 µM (inactive); in experiment [5], 2.26 µM (inactive); in [6], 8.49 µM (inactive). The GI50 is 3.72 µM (inactive) in experiment [7]; 2.56 µM (inactive) in experiment [9]; 2.16 µM (inactive) in [10]; 8.32 µM (inactive) in experiment [11]; 2.88 µM (inactive) in experiment [12]; 3.29 µM (inactive) in experiment [13]. Moreover, the GI50 is 4.56 µM (inactive) in experiment [14]; 4.05 µM (inactive) in [15]; 3.48 µM (inactive) in [16]; 4.26 µM (inactive) in experiment [17]; 6.84 µM (inactive) in experiment [18]; 7.23 µM (inactive) in experiment [19].

As to `CNc1ccc2c(c1)Cc1ccccc1-2`, the GI50 is 20 µM (inactive) in experiment [1]; 22.5 µM (inactive) in experiment [2]; 35.2 µM (inactive) in experiment [3]; 59.2 µM (inactive) in [4]; 56.2 µM (inactive) in [5]; 57.4 µM (inactive) in experiment [6]. Moreover, the GI50 was 21 µM (inactive) in experiment [7]; 33.3 µM (inactive) in [8]; 34.5 µM (inactive) in experiment [9]; 36.1 µM (inactive) in [10]; 78 µM (inactive) in [11]; 32.5 µM (inactive) in experiment [12]. The GI50 was 26.8 µM (inactive) in experiment [13]; 25.4 µM (inactive) in experiment [14]; 34.8 µM (inactive) in [15]; 44 µM (inactive) in experiment [16]; 44.5 µM (inactive) in experiment [17]; 13.6 µM (inactive) in experiment [18]. In experiment [19], the GI50 was 36.6 µM (inactive).
